Where a name gives a salt, the structure may show the parent alone.
Key:
K562 cells = assay: Cell Titer Glo 2.0 cell viability assay; type: cell-based; settings: Homo sapiens, 500 cells/well, 72 hours
Procedure, shortened: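 K562 cells (500/well) in IMDM with 10% FBS were exposed to serially diluted compounds at 0.1% DMSO final. After 72 h at 37° C, 5% CO2, viability was read by CellTiter-Glo 2.0 luminescence, with medium-only blanks.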

SMN2 mRNA = assay: RT-qPCR splicing assay, gene panel, SMN2 canonical junction (CJ) mRNA; type: cell-based; settings: Homo sapiens, read-out: SMN2 CJ IC50
Procedure, shortened: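 A673 (DMEM/10% FBS) or K562 (IMDM/10% FBS) cells were treated 24 h at 37 °C with an 11-point 3-fold dilution series, top final 10 uM, DMSO ≤0.25%. Lysates underwent one-step RT-qPCR for the canonical-junction isoform with GAPDH, GUSB or PPIA as housekeeper. ΔΔCt versus DMSO was converted to RQ (2^−ΔΔCt), then to percent response.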

Cc1cn2nc(-c3cc(F)c4nn(C5CCNCC5)cc4c3)cc(C)c2n1 [Compound 122, 6-(7-fluoro-2-(piperidin-4-yl)-2H-indazol-5-yl)-2,8-dimethylimidazo [1,2-b]pyridazine hydrochloride salt]
GI50 (K562 cells): < 100 nM
IC50 (SMN2 mRNA): < 100 nM

Source: patent US20250082633A1, “COMPOUNDS AND METHODS FOR MODULATING SPLICING” (REMIX THERAPEUTICS INC., priority 2021, published 2025)
